Experimental data published in patent publication US20170112748A1, “N-ACYLPEPTIDE DERIVATIVES AND THEIR USES” (NeoStrata Company, Inc., priority 2012, published 2017).
Peptide text beside a SMILES is read from it.

How the values were obtained:
[1] = tested on: MB231 breast cancer cells; details: summary table
Description: A typical in vitro screen for anti-tumor or anti-cancer effects was carried out as follows.
An aliquot of 2,000 MB231 breast cancer cells (breast carcinoma cells) in 100 μl DMEM complete media (Sigma Chemical Co.) was plated in a 96 well plate containing at a concentration of 20 μg/ml a test substance or control water. To measure proliferation of the cancer cells, an aliquot of 20 μl of MTS reagent (Promega Co.) was added to each well and the cells were incubated at 37° C. for a total of three days. The cells rapidly metabolized MTS reagent and the metabolized MTS reagent was measured at 490 nm at the end of days 1, 2 and 3. The reading was proportional to the number of cancer cells. The decrease in absorbance at each time point indicated fewer cancer cells. At the end of day 3, the decrease in absorbance with respect to the control indicated the inhibition by the test substance.

[2] = topical treatment of bilateral inter-metacarpal atrophy of hands; assay type: in vivo, human; details: Example 23: subject, 2% (w/v) in EP73 two to three times daily, three weeks
From the text: A subject had bilateral inter-metacarpal atrophy of both hands with certain restrictions of hand movements. The subject topically applied two to three times daily N-Ac-L-Tyr-L-Tyr-L-Tyr-OEt, 2% (w/v) in EP73 on the back of their left hand, and vehicle control EP73 on the back of their right hand for three weeks.
The subject now, topically applied twice daily N-Ac-L-Tyr-L-Tyr-L-Tyr-NH2, 1% (w/v) in WEP442 on the back of their left hand as a mantenace therapy.

[3] = summary of test results in volunteer subjects, efficacy grades; assay type: in vivo, human; details: efficacy grade
From the text: Subject 1. Person had multiple red and itchy inflammation, dermatitis, or eczema lesions, which were resistant to conventional treatments including corticosteroids. Subject 2. Person had small red and itchy lesions which were resistant to topical corticosteroid treatment. Subject 3. Person had multiple red and itchy inflammation, dermatitis, or eczema lesions over the body for many years, which were resistant to conventional treatments including corticosteroids. Subject 4. Person had red and itchy inflammation, dermatitis, or eczema lesions for many years, which were resistant to topical corticosteroid treatment. Subject 5. Person had early stage of aging related skin changes on both forearms as indicated by age spots and wrinkled skin caused by solar damage. Subject 6. Person had age spots, keratoses and wrinkles on both forearms caused by intrinsic and extrinsic aging. Subject 7. Person had age spots, and wrinkles on both forearms caused by intrinsic and extrinsic aging. Subject 8. Person had osteoarthritis of both knees with inflammation and pain for more than 4 years, and had only mild transitory relief from conventional treatments. Subject 9. Person had sensitive skin with inflammatory lesions on the body. Subject 12. Person had dermatitis and inflammatory lesions on the left palm. Subject 14. Person had multiple age spots including lentigines and keratosis on their face. Subject 15. Person had psorisis Subject 16. Person had sensitive skin and eczema for more than 40 years
In another embodiment, the volunteer subject topically applied the test compositions containing N-acylpeptide derivatives of the present invention on involved skin or lesions once or twice daily for several weeks or until the involved lesions completely cleared and clinically changed to normal skin. As a control study, the subject also topically applied a vehicle control composition on the involved skin or lesions twice daily for the same period.
(§1) In yet another embodiment, the volunteer subject topically applied once or twice daily the test compositions containing N-acylpeptide derivatives of the present invention on the skin site above arthritic joints or painful muscles to provide therapeutic effects for the systemic disorders via topical administration.
(§2) In yet another embodiment, the volunteer subject injected intra-articularly into a knee joint a test composition containing a N-acylpeptide derivative of the present invention to improve and reduce arthritic inflammation and pain of the joint.
Some test results are summarized as follows.
DK: Disturbed keratinization AG: Aging related changes of skin, nail and hair DI: Deranged immune disorders and inflammation ND: Nerve disorders CA: Tumors and/or cancers

[4] = topical treatment of telangiectatic rosacea, clinical evaluation; assay type: in vivo, human; details: Example 22: subject, face, 1% (w/v) in WEP442 twice daily, two weeks
From the text: A subject had rosacea on their face with erythema, inflammation and dilated blood vessels, described as telangiectatic rosacea. The subject topically applied twice daily N-Ac-L-Tyr-L-Tyr-L-Tyr-OEt, 1% (w/v) in WEP442 for two weeks. At the end of two weeks, the erythema and inflammation had diminished, and improvement in rduced size of telangiectatic blood vessels was discernible. The rosacea lesions had approximately 25% improvement as judged by clinical evaluation.

[5] = topical treatment of chronic inflammation, erythema, eczema with thick scales and itch, clinical evaluation; assay type: in vivo, human; details: Example 10: subject, -NH2 0.3% and -OEt 0.5% (w/v) in WEP442
From the text: The involved skin was divided into two lesions for testing. The subject topically applied twice daily to one lesion, N-Ac-L-Tyr-L-Tyr-L-Tyr-NH2 0.3% (w/v) in WEP442, pH 5.9 solution composition, prepared according to Example 2, and to second lesion, N-Ac-L-Tyr-L-Tyr-L-Tyr-OEt 0.5% (w/v) in WEP 442, pH 6.0, prepared according to Example 2. […] The treated skin had 90-95% improvement as judged by clinical evaluation.

[6] = skin plump / skin thickness test after topical application, caliper measurement; assay type: in vivo, human; details: for increased skin thickness: 1% (w/v) in WEP442 three times daily
Description: In one of the studies related to skin changes associated with aging, skin thickness was measured by micrometer calipers as follows.
The skin was grasped with a 2×6 cm metal hinge: the internal faces of which were coated with emery cloth to prevent slippage, and manually squeezed to threshold subject discomfort. Combined thickness of two whole-skin layers including thickness of the two hinge leaves was measured with micrometer calipers. Thickness of the two hinge leaves was subtracted to determine the actual thickness of two whole-skin layers. Triplicate measurements on treated sites were done and an average number was used for calculation of the skin thickness.
In other studies, test sites of skin 17 mm in diameter were used, the circular sites were marked with permanent ink. Intervening control sites were also 17 mm in diameter. Thickness of skin of all sites was measured directly by means of an electronic digital caliper. In this instance the jaws of the caliper were opened to 17 mm, applied with pressure to the skin sites and then closed to firm tightness. Thickness of skin was then read off the screen of the calipers. Measurements of all sites were made in triplicates. […]

[7] = knee osteoarthritis, intra-articular injections; assay type: in vivo, human; details: for duration of relief of pains / period of diminished edema and inflammation of the knees and lower legs / time after injection until pains in both knees disappeared: Example 18: subject; for duration of relief of pains / period of diminished edema and inflammation of the knees and lower legs: intra-articular 1 mg each knee; for time after injection until pains in both knees disappeared: intra-articular 1 mg each knee (-OH 1% in water 0.1 ml; -OEt 0.2% with 1% methyl cellulose 0.5 ml)
Description: A subject had severe osteoarthritis of both knees for more than four years. Prior therapy had included intra-articular injections of corticosteroids and hyaluronic acid as well as celecoxib (Celebrex) orally (200 mg) twice daily. Such therapy had provided only mild transitory relief of knee pain and edema, and edema of lower legs.
Intra-articular injections of 1% (w/v) N-Ac-L-Tyr-L-Tyr-L-Tyr-OH in water, 0.1 ml (1 mg) as prepared in Example 4 were administered to each knee. The pains in both knees disappeared about 20-30 minutes after the injections, and the relief of pains lasted for 24 hours. Edema and inflammation of the knees and lower legs had diminished for approximately the same 24 hour period. Repeat injections of the same composition were administered once a week for several weeks to provide continued relief of pain, edema and inflammation.
In another trial, intra-articular injections of 0.2% (w/v) N-Ac-L-Tyr-L-Tyr-L-Tyr-OEt with 1% (w/v) methyl cellulose in water, 0.5 ml (1 mg) as prepared in Example 4 were also administered to each knee at different times. The pains in both knees disappeared about 20-30 minutes after the injections, and the relief of pains lasted for 24 hours. Edema and inflammation of the knees and lower legs had diminished for approximately the same 24 hour period.
A subject had osteoarthritis of both knees for more than four years. […] Intra-articular injections of each knee with N-Ac-L-Tyr-L-Tyr-L-Tyr-OH, 7-13 mg in aqueous solution had provided substantial relief of pain in the joints for 2-3 days.
as §2

[8] = knee osteoarthritis, topical maintenance therapy; assay type: in vivo, human; details: Example 25: subject, 1% (w/v) in EP73 topically 2-3 times daily on skin covering the knee areas
From the text: as §1

[9] = urination (diuretic effect) after topical application on forehead; assay type: in vivo, human; details: Example 17: subject, 0.2% in WEP442 on forehead, about one hour later; repeated next day with same result
From the text: The subject then topically applied N-Ac-L-Tyr-L-Tyr-L-Tyr-OH, 0.2% in WEP442 on their forehead. […] The subject repeated the same procedure the next day, and obtained the same result.

[10] = skin thickness after intradermal injection on the forearms; assay type: in vivo, human; details: Example 15: subject, intradermal 0.05 ml (0.5 mg) of 1% in water, after 8 days
Description: In other studies, test sites of skin 17 mm in diameter were used, the circular sites were marked with permanent ink. Intervening control sites were also 17 mm in diameter. Thickness of skin of all sites was measured directly by means of an electronic digital caliper. In this instance the jaws of the caliper were opened to 17 mm, applied with pressure to the skin sites and then closed to firm tightness. Thickness of skin was then read off the screen of the calipers. Measurements of all sites were made in triplicates.
A typical systemic administration by intradermal injection was carried out as follows. A subject, injected intradermally on the forearms the following N-acylpeptide derivative of the present invention:
(a). N-Ac-L-Tyr-L-Tyr-L-Tyr-OH, 0.05 ml (0.5 mg) of 1% in water, after 8 days, there was 10-20% increase in skin thickness of 6 mm size skin at the injection site: effective for aging skin. (b). N-Ac-L-Ala-L-Leu-L-Lys-L-His-L-Arg-NH2 (SEQ ID NO: 51), 0.05 ml (0.5 mg) of 1% in water. (c). N-Bz-L-Ala-L-Leu-L-Lys-L-His-L-Arg-NH2 (SEQ ID NO: 65), 0.05 ml (0.5 mg) of 1% in water. (d). N-Ac-(EEASPEAVAGVGFESK)-NH2 (SEQ ID NO: 126), 0.1 ml (0.4 mg) of 0.4% in water.

CC(=O)N[C@@H](CCC(=O)O)C(=O)N[C@@H](CCC(=O)O)C(=O)N[C@@H](C)C(=O)N[C@@H](CO)C(=O)N1CCC[C@H]1C(=O)N[C@@H](CCC(=O)O)C(=O)N[C@@H](C)C(=O)N[C@H](C(=O)N[C@@H](C)C(=O)NCC(=O)N[C@H](C(=O)NCC(=O)N[C@H](C(=O)N[C@@H](CCC(=O)O)C(=O)N[C@@H](CO)C(=O)N[C@@H](CCCCN)C(N)=O)c1ccccc1)C(C)C)C(C)C [N-Ac-(EEASPEAVAGVGBESK)-NH2] (HELM PEPTIDE1{[ac].E.E.A.S.P.E.A.V.A.G.V.G.[Phg].E.S.K.[am]}$$$$V2.0)
CA (Tumors and/or cancers) [1]: 9% Inhibition

N-Ac-L-Tyr-L-Tyr-L-Tyr-OEt
inter-metacarpal atrophy of left hand [2]: disappeared almost completely
AG: Aging related changes of skin, nail and hair [3]: 3+ (3+: 75% Efficacy)
DI: Deranged immune disorders and inflammation [3]: 3+ (3+: 75% Efficacy)
DK: Disturbed keratinization [3]: 3+ (3+: 75% Efficacy)
ND: Nerve disorders [3]: 4+ (4+: 95-100% Efficacy)
improvement of rosacea lesions as judged by clinical evaluation [4]: approximately 25%
itch [5]: stopped within a few minutes
increase in skin thickness ([6]; Example 9: subject, severe photodamage, forearm spots, 0.5% (w/v) in WEP721 (spot A in WEP442) four times daily, 10 days): 20-30%
increase in skin thickness ([6]; Example 19: subject, right extensor forearm, 0.8% (w/v) in WEP442 three times daily, four weeks): approximately 33%
skin condition of test site vs vehicle control ([6]; Example 20: subject, photoaging forearms, 0.5% (w/v) in WEP442 three times daily, four weeks): palpably raised, smooth, less wrinkled and increased in skin thickness
increased skin thickness ([6]; Example 20: subject, photoaging forearms, four weeks): approximately 12%
skin thickness on the back of left hand (average) ([6]; Example 24: subject, 2% (w/v) in EP73 two to three times daily, six weeks, starting thickness 1.70 mm): 2.59 mm
increase over the starting skin thickness ([6]; Example 24: subject, back of left hand, 2% (w/v) in EP73 two to three times daily, six weeks): 52%
duration of relief of pains [7]: 24 h
period of diminished edema and inflammation of the knees and lower legs [7]: ~24 h
time after injection until pains in both knees disappeared [7]: 20 to 30 min
knee joint pain under maintenance therapy [8]: continued relief of knee joint pains

N-Ac-L-Tyr-L-Tyr-L-Tyr-OH
AG: Aging related changes of skin, nail and hair [3]: 2+ (2+: 50% Efficacy)
DI: Deranged immune disorders and inflammation [3]: 3+ (3+: 75% Efficacy)
DK: Disturbed keratinization [3]: 2+ (2+: 50% Efficacy)
ND: Nerve disorders [3]: 3+ (3+: 75% Efficacy)
increased skin thickness ([6]; Example 21: subject, sun damaged forearms, one week): approximately 29%
urination [9]: urge for urination
duration of relief of pains [7]: 24 h
period of diminished edema and inflammation of the knees and lower legs [7]: ~24 h
time after injection until pains in both knees disappeared [7]: 20 to 30 min
duration of substantial relief of pain in the joints ([7]; Example 25: subject, intra-articular 7-13 mg in aqueous solution each knee): 2 to 3 days
increase in skin thickness of 6 mm size skin at the injection site [10]: 10-20%
